In patent US11376264B2, “Use of bromodomain-containing protein 9 antagonists in combination with vitamin D receptor agonists in diabetes treatment” (Salk Institute for Biological Studies, priority 2017, dated 2022):

Tested on: h-IAPP mouse islets
Assay: Islets from aged h-IAPP transgenic mice treated ex vivo (qPCR)
Type: cell-based
Conditions: 72 hr ex vivo, 15 month old mice
Procedure: Samples were run in triplicate and expression was normalized to the levels of the housekeeping controls Rplp0 (36b4) for human and mouse. Samples were analyzed by qPCR, using SYBR Green dye (Bio-rad). Statistical comparisons were made using Student's t test. Error bars are mean±SEM. Primers used are shown below: Mouse pancreatic islets were isolated as previously described (Yoshihara et al., 2010, Nat. Commun 1:127) with slight modification. Briefly, 0.5 mg/ml collagenase P (Roche REF 1213873001, diluted in HBSS buffer, GIBCO, 14170-112) was injected through the common bile duct, and the perfused pancreas dissected and incubated at 37° C. for 21 min. Digested exocrine cells and intact islets were separated via centrifugation (900×g for 15 min) over Histopaque-1077 (Sigma, H8889), and intact islets were manually selected. Human islets were provided by the Integrated Islets Distribution Program (see details below).

SMILES: C=C1/C(=C\C=C2/CCC[C@]3(C)[C@@H]([C@H](C)/C=C/[C@@H](O)C4CC4)CC[C@@H]23)C[C@@H](O)C[C@@H]1O [Cal, calcipotriol]
- inflammatory and stress markers: reduced
